These are literature values, as cited in patent publication US20120122237A1, “HOMOGENEOUS NONCOMPETITIVE DETECTION OF POST TRANSLATIONAL MODIFICATIONS FOR USE IN HIGH THROUGHPUT ASSAYS” (priority 2010, published 2012).

Series [1] deals with Polyclonal antibody for 3-PBA. The conditions noted are these: competitive ELISA.
Series [2] deals with Polyclonal antibody for 3-PBA.
Series [3] concerns Monoclonal Antibody for Atrazine. The conditions noted are these: competitive ELISA.
Series [4] has the same test system.

In the case of 4-hydroxy 3-PBA, in series [1], the “Crossreactivity (%) ELISA” value is 98%. In addition, the “Crossreactivity (%) PHAIA” value in series [2] is given as 0%.

For the compound `O=C(O)c1cccc(Oc2ccccc2)c1` [3-PBA, 3-phenoxybenzoic acid], the “Crossreactivity (%) ELISA” value in series [1] is given as 100%. The “Crossreactivity (%) PHAIA” value in series [2] was 100%.

Take `O=Cc1cccc(Oc2ccccc2)c1` [3-pheonoxy aldehyde]: in series [1], the “Crossreactivity (%) ELISA” value was 10%. Further, in series [2], the “Crossreactivity (%) PHAIA” value is given as 3%.

Regarding `CCNc1nc(Cl)nc(NC(C)C)n1` [atrazine], in series [3], the “Crossreactivity (%) ELISA” value is 100%. Also, the “Crossreactivity (%) PHAIA” value in series [4] is 100%.

As to `CCNc1nc(Cl)nc(NC(C)(C)C#N)n1` [cyanazine], the “Crossreactivity (%) ELISA” value in series [3] is 91%. Further, in series [4], the “Crossreactivity (%) PHAIA” value was 0%.

With `CC(C)Nc1nc(Cl)nc(NC(C)C)n1` [propazine], in series [3], the “Crossreactivity (%) ELISA” value was 116%. For the same compound, the “Crossreactivity (%) PHAIA” value in series [4] is given as 144%.

Take `CCNc1nc(Cl)nc(NCC)n1` [simazine]: the “Crossreactivity (%) ELISA” value in series [3] is listed as 48%. Also, in series [4], the “Crossreactivity (%) PHAIA” value is listed as 0%.
